Data on four molecules can be found in patent US8110577B2, “Histone deacetylase inhibitors” (Queen Mary & Westfield College, priority 2006, dated 2012).

The structures appear in SMILES notation. Where two headings read alike, the source gives them in different places.

The test system of test [1] is Cell-free (CEM cells) HDAC. In words: Cell-free (CEM cells) HDAC inhibitory activity, fluorescent commercial kit (Upstate Cell Signaling). Type of test: biochemical. An excerpt:
HDAC inhibitory activity has also been determined using a fluorescent commercial kit method (Upstate Cell Signaling).

The target in test [2] is Partially purified HDAC enzyme (liver prep). Description: HDAC activity assay (MAL deacetylation, HPLC) with partially purified liver HDAC. Type of test: biochemical, rat. An excerpt: The activity of compounds as inhibitors of histone deacetylase was investigated using a modified procedure based on a rapid in vitro HDAC activity assay (HDAC mediated deacetylation of an Ω-acetylated lysine (MAL)) as described by Hoffman et al in Nucl. Acids. Res. 27 2057-2058 (1999).
The HDAC substrate N-(-4-methyl-7-coumarinyl)-N-α-(tert-butyloxy-carbonyl)-N-Ω abbreviated as MAL was synthesised as described (Hoffman et al 1999). HDAC inhibitors and substrate (MAL) were made up in Hepes buffer (50 mM, pH 7.4). Partially purified HDAC enzyme (liver prep, 100 μL), HDAC inhibitor or Hepes buffer (100 μl), substrate (MAL, 100 μL 5 μg/mL) and assay buffer (100 μL, tris-HCl (10 mM), NaCl (10 mM), MgCl2 (15 mM), EGTA (0.1 mM), 10% (v/v) glycerol, and mercaptoethanol (0.007%)) were incubated at 37° C. for 60 minutes. The reaction was terminated with 100 μl acetonitrile, and MAL and the deacetylated product (ML) were determined in the supernatant.
(§1) Chromatographic separation of MAL and ML was carried out using a 15 cm Apex ODS […] column with acetonitrile/distilled water (40:60), 2% trifluoracetic acid (TFA) v/v mobile phase at a flow rate of 1.2 ml/minute. MAL and ML were quantified by fluorescence detection at excitation/emission wavelengths of 330/395 nm.
(§2) The activity of each inhibitor was assessed at a minimum of 5 non-zero concentrations. MAL and ML peak heights were used to derive the percentage MAL in the mixture as the ration of MAL: MAL+ML.
HDAC inhibitory activity against cell-free HDACs isolated from rat liver was determined using the HPLC method.

For test [3], the system named is acetylated histone H3 in MCF-7 cells. In words: Histone H3 acetylation in MCF7 cells (protein blot). Type of test: cell-based. As to conditions: for histone H3 acetylation with time: FIG. 5; for change in histone H3 acetylation: 2 hour exposure to increasing concentrations, FIG. 4. The procedure:
The effect of the compounds on the acetylation of histone H3 was investigated in MCF-7 cells. Briefly cells were treated with a range of concentration of specific inhibitor or different exposure durations. Cells were then lysed and the proteins resolved by polyacrylamide electrophoresis prior to blotting onto a nitrocellulose membrane and staining with an antibody specific for the protein under study (acetylated histone H3) and a control protein (β-actin). As HDAC inhibitors reduce deacetylase activity, treatment of intact cells results in the accumulation of acetylated histones.

Test [4] has as its system MCF7 (breast cancer) tumours. Description: MCF7 xenograft study in nude mice. The note with it: 15 day treatment, FIG. 6. Type of test: in vivo. The procedure: Xenograft studies were carried out with MCF7 cells implanted under the skin on the flank of female nude mice (5-8 weeks of age). […] Animals also received a 2 mg oestrogen pellet as an implant on the day of tumour implantation. Tumour volumes were determined from measurements of 2 diameters carried out every other day out to day 15 of treatment.

For test [5], the system named is MCF7 (breast cancer) cells. In words: Cell viability, 3-day exposure, MCF7 cells. The note with it: Homo sapiens, 72 h, 3 day incubation, FIG. 3. Type of test: cell-based. The procedure:
(§3) EC50 values for percentage viability (3-day exposure) were determined using 2 different methods, trypan blue staining and an ATP assay. Trypan blue staining relies on the ability of healthy cells with intact membranes to exclude dyes. As cells start to undergo programmed cell death membrane integrity becomes compromised allowing dye entry. The % cells staining positive for trypan blue relative to the total cell number therefore reflects % cell viability (% viability). Non-viable cells also lose the ability to regenerate ATP. A specific ATP assay procedure using a 96-well plate-based approach (Vialite assay, Cambrex, UK) also measures cell viability, expressed relative to the ATP value in the control (untreated) cell population.

In test [6] the test system is HDAC activity in intact CEM cells. Description: Whole cell HDAC activity assay (MAL) in intact CEM cells. Type of test: cell-based. As to conditions: FIG. 2, read-out: HDAC inhibitory values in intact CEM cells. As to the method:
Cells were then rapidly washed at 4° C., lysed by sonication, the reaction stopped with acetonitrile, and MAL and the deacetylated product determined in the supernatant by rapid HPLC.
as §1, §2

For test [7], the system named is HCT116 (colorectal cancer) cells. In words: Cell viability, 3-day exposure, HCT116 cells. Type of test: cell-based. As to conditions: Homo sapiens, HCT-116, 72 h, 3 day incubation, FIG. 3. The procedure:
as §3

Another test concerns CEM (leukaemic) cells. Description: Cell viability / cytotoxic activity, ATP Vialite assay, CEM cells. Type of test: cell-based. The note with it: Homo sapiens, CCRF-CEM. As to the method: as §3
Effects against viable cell number have been determined using the ATP Vialite kit method (Cambrex, UK).

Test [8] relates to panel of 8 lymphoma cell lines. In words: Cell viability (ATP) in a panel of 8 lymphoma cell lines. Type of test: cell-based. The note with it: ATP endpoint assay, read-out: EC50 values (range over the panel). The procedure: as §3
Setting [9] is: cell-free HDACs isolated from rat liver, HPLC method, different liver preparation than Example 1, read-out: HDAC inhibitory IC50.

In the case of `Cc1nsc(C(CCCCCC(=N)NO)C(=O)Nc2ccccc2)n1` (stereo not drawn) [67022,19, 7-(N-Hydroxycarbamimidoyl)-2(3-methyl[1,2,4]thiadiazol-5-yl)heptanoic Acid Phenylamide], the IC50 in test [1] worked out at 46100 ± 12000 nM; in test [2] (setting [9]), 44600 ± 5600 nM.

In the case of `Cc1nsc(C(CCCCCC(N)=S)C(=O)Nc2ccccc2)n1` (stereo not drawn) [67022,20, 2-(3-Methyl-[1,2,4]thiadiazol-5-yl)-7-thiocarbamoylheptanoic Acid Phenylamide], the IC50 in test [2] (setting [9]) came out at 318000 nM.

Regarding `O=C(CCCCCCC(=O)Nc1ccccc1)NO` [SAHA, suberoylanilide hydroxamic acid, reference compound], the “histone H3 acetylation with time” value in [3] (3 μM SAHA, time periods up to 48 hours) is recorded as “acetylation increased up to 6 hours, but had decreased to baseline levels by 24 hours”. Besides, the “change in histone H3 acetylation” value in test [3] is reported as “relatively minor changes in acetylation state at concentrations <1.0 μM”. The “effect on tumour growth” value in test [4] (daily IP 25 mg/kg in DMSO) is given as “not very different to treatment with the DMSO vehicle alone”.

For `O=C(CCCCCC(C(=O)Nc1ccccc1)C(=O)Nc1ccccc1)NO` [UCL67022, 2-Phenylcarbamoyl-octanedioic acid 8-hydroxyamide 1-phenylamide], the IC50 worked out at 86 ± 7 nM in test [1]; 40 ± 9 nM in test [2] (setting [9]); 50 ± 10 nM in test [2] (partially purified rat liver preparation, Example 1, FIG. 1, read-out: HDAC inhibitory activity IC50); 110 ± 20 nM in test [6]; 98 ± 42 nM in the test with CEM (leukaemic) cells (cytotoxic activity against CEM (leukaemic) cells, viable cell number, ATP Vialite kit, read-out: HDAC inhibitory IC50). For the same molecule, the EC50 (commonly the concentration at which the effect is half-maximal) was 130 nM in test [5]; 70 nM in [7]; 60 nM in the test with CEM (leukaemic) cells (72 h, CEM cells, 3 day incubation, FIG. 3); 20 to 80 nM in test [8]. Also, in [3] (0.3 μM UCL67022, time periods up to 48 hours), the “histone H3 acetylation with time” value is “acetylation continued to increase out to 24 hours, and was still substantially higher than baseline at 48 hours”. The “change in histone H3 acetylation” value in test [3] was “marked change in histone H3 acetylation at concentrations as low as 0.1 μM”. Further, in [4] (daily IP dose levels 12.5·M and 6.25·M), the “effect on tumour growth” value is reported as “appeared to have a clear effect on tumour growth”.
